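Where inhibition never reached the appropriate level, the endpoint shown equals the highest concentration tested. Otherwise, values were interpolated linearly from a five-concentration, 48-hour dose response in 96-well plates. Abbreviation: GI50, concentration required for 50% inhibition of growth. TGI is the concentration that stops growth completely.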
Columns and labels:
Assay in all cases: inhibition of tumour cell growth, NCI panel, 48 h
786-0 renal = tested on: 786-0 renal
A498 renal = tested on: A498 renal
A549 NSCLC = tested on: A549 NSCLC
ACHN renal = tested on: ACHN renal
BT-549 breast = tested on: BT-549 breast
CAKI-1 renal = tested on: CAKI-1 renal
CCRF-CEM leukemia = tested on: CCRF-CEM leukemia
COLO 205 colon = tested on: COLO 205 colon
DU-145 prostate = tested on: DU-145 prostate
EKVX NSCLC = tested on: EKVX NSCLC
HCC-2998 colon = tested on: HCC-2998 colon
HCT-15 colon = tested on: HCT-15 colon
HOP-62 NSCLC = tested on: HOP-62 NSCLC
HOP-92 NSCLC = tested on: HOP-92 NSCLC
HS 578T breast = tested on: HS 578T breast
HT29 colon = tested on: HT29 colon
IGROV1 ovarian = tested on: IGROV1 ovarian
K-562 leukemia = tested on: K-562 leukemia
KM12 colon = tested on: KM12 colon
LOX IMVI melanoma = tested on: LOX IMVI melanoma
M14 melanoma = tested on: M14 melanoma
MALME-3M melanoma = tested on: MALME-3M melanoma
MCF7 breast = tested on: MCF7 breast
MDA-MB-231 breast = tested on: MDA-MB-231 breast
MDA-MB-435 = tested on: MDA-MB-435
MDA-MB-468 breast = tested on: MDA-MB-468 breast
MOLT-4 leukemia = tested on: MOLT-4 leukemia
NCI-H226 lung = tested on: NCI-H226 lung
NCI-H23 lung = tested on: NCI-H23 lung
NCI-H460 lung = tested on: NCI-H460 lung
NCI-H522 lung = tested on: NCI-H522 lung
NCI/ADR-RES ovarian = tested on: NCI/ADR-RES ovarian
OVCAR-3 ovarian = tested on: OVCAR-3 ovarian
OVCAR-4 ovarian = tested on: OVCAR-4 ovarian
OVCAR-5 ovarian = tested on: OVCAR-5 ovarian
OVCAR-8 ovarian = tested on: OVCAR-8 ovarian
PC-3 prostate = tested on: PC-3 prostate
RPMI-8226 leukemia = tested on: RPMI-8226 leukemia
RXF 393 renal = tested on: RXF 393 renal
SF-268 CNS = tested on: SF-268 CNS
SF-295 CNS = tested on: SF-295 CNS
SF-539 CNS = tested on: SF-539 CNS
SK-MEL-2 melanoma = tested on: SK-MEL-2 melanoma
SK-MEL-28 melanoma = tested on: SK-MEL-28 melanoma
SK-MEL-5 melanoma = tested on: SK-MEL-5 melanoma
SK-OV-3 ovarian = tested on: SK-OV-3 ovarian
SN12C renal = tested on: SN12C renal
SNB-19 CNS = tested on: SNB-19 CNS
SR leukemia = tested on: SR leukemia
T-47D breast = tested on: T-47D breast
TK-10 renal = tested on: TK-10 renal
UACC-257 melanoma = tested on: UACC-257 melanoma
UACC-62 melanoma = tested on: UACC-62 melanoma
UO-31 renal = tested on: UO-31 renal

COc1ccc(C(=O)/C=C/c2cc3c(cc2Br)OCO3)cc1S(N)(=O)=O
GI50 (786-0 renal): 3.68 µM | TGI (786-0 renal): 15.4 µM | GI50 (A498 renal): 15.2 µM | TGI (A498 renal): 28.8 µM | GI50 (A549 NSCLC): 2.7 µM | TGI (A549 NSCLC): 10.5 µM | GI50 (ACHN renal): 1.97 µM | TGI (ACHN renal): 4.11 µM | GI50 (BT-549 breast): 5.99 µM | TGI (BT-549 breast): 49 µM | GI50 (CAKI-1 renal): 4.55 µM | TGI (CAKI-1 renal): 23.9 µM | GI50 (CCRF-CEM leukemia): 6.67 µM | TGI (CCRF-CEM leukemia): 38.1 µM | GI50 (COLO 205 colon): 5.39 µM | TGI (COLO 205 colon): > 100 µM | GI50 (DU-145 prostate): 3.71 µM | TGI (DU-145 prostate): 12.7 µM | GI50 (EKVX NSCLC): 9.71 µM | TGI (EKVX NSCLC): 42.9 µM | GI50 (HCC-2998 colon): 5.39 µM | TGI (HCC-2998 colon): 24.2 µM | GI50 (HCT-15 colon): 1.78 µM | TGI (HCT-15 colon): 3.79 µM | GI50 (HOP-62 NSCLC): 2.62 µM | TGI (HOP-62 NSCLC): > 100 µM | GI50 (HOP-92 NSCLC): 5.46 µM | TGI (HOP-92 NSCLC): 23.5 µM | GI50 (HS 578T breast): 20.8 µM | TGI (HS 578T breast): > 100 µM | GI50 (HT29 colon): 1.88 µM | TGI (HT29 colon): 3.66 µM | GI50 (IGROV1 ovarian): 2.8 µM | TGI (IGROV1 ovarian): 12.7 µM | GI50 (K-562 leukemia): 0.445 µM | TGI (K-562 leukemia): 11.8 µM | GI50 (KM12 colon): 2.45 µM | TGI (KM12 colon): 6 µM | GI50 (LOX IMVI melanoma): 1.68 µM | TGI (LOX IMVI melanoma): 3.16 µM | GI50 (M14 melanoma): 9.16 µM | TGI (M14 melanoma): 25.5 µM | GI50 (MALME-3M melanoma): 11.6 µM | TGI (MALME-3M melanoma): 27 µM | GI50 (MCF7 breast): 3.84 µM | TGI (MCF7 breast): 19.5 µM | GI50 (MDA-MB-231 breast): 2.87 µM | TGI (MDA-MB-231 breast): 8.68 µM | GI50 (MDA-MB-435): 13.6 µM | TGI (MDA-MB-435): 37.5 µM | GI50 (MDA-MB-468 breast): 4.98 µM | TGI (MDA-MB-468 breast): 24.8 µM | GI50 (MOLT-4 leukemia): 2.3 µM | TGI (MOLT-4 leukemia): 7.68 µM | GI50 (NCI-H226 lung): 2.8 µM | TGI (NCI-H226 lung): 10.9 µM | GI50 (NCI-H23 lung): 4.24 µM | TGI (NCI-H23 lung): 28 µM | GI50 (NCI-H460 lung): 3.95 µM | TGI (NCI-H460 lung): > 100 µM | GI50 (NCI-H522 lung): 2.79 µM | TGI (NCI-H522 lung): 14.9 µM | GI50 (NCI/ADR-RES ovarian): 2.3 µM | TGI (NCI/ADR-RES ovarian): 6 µM | GI50 (OVCAR-3 ovarian): 2.55 µM | TGI (OVCAR-3 ovarian): 6.62 µM | GI50 (OVCAR-4 ovarian): 3.72 µM | TGI (OVCAR-4 ovarian): 32.3 µM | GI50 (OVCAR-5 ovarian): 2.65 µM | TGI (OVCAR-5 ovarian): 10.2 µM | GI50 (OVCAR-8 ovarian): 2.91 µM | TGI (OVCAR-8 ovarian): > 100 µM | GI50 (PC-3 prostate): 6.7 µM | TGI (PC-3 prostate): 28.9 µM | GI50 (RPMI-8226 leukemia): 2.87 µM | TGI (RPMI-8226 leukemia): 10.6 µM | GI50 (RXF 393 renal): 2.77 µM | TGI (RXF 393 renal): 17.5 µM | GI50 (SF-268 CNS): 5.33 µM | TGI (SF-268 CNS): 29.9 µM | GI50 (SF-295 CNS): 6.21 µM | TGI (SF-295 CNS): 25.4 µM | GI50 (SF-539 CNS): 1.72 µM | TGI (SF-539 CNS): 3.27 µM | GI50 (SK-MEL-2 melanoma): 14.7 µM | TGI (SK-MEL-2 melanoma): 30.2 µM | GI50 (SK-MEL-28 melanoma): 14.3 µM | TGI (SK-MEL-28 melanoma): 30.2 µM | GI50 (SK-MEL-5 melanoma): 9.12 µM | TGI (SK-MEL-5 melanoma): 29.2 µM | GI50 (SK-OV-3 ovarian): 14.4 µM | TGI (SK-OV-3 ovarian): 34.1 µM | GI50 (SN12C renal): 2.05 µM | TGI (SN12C renal): 5.32 µM | GI50 (SNB-19 CNS): 5.77 µM | TGI (SNB-19 CNS): 29.7 µM | GI50 (SR leukemia): 1.54 µM | TGI (SR leukemia): 4.58 µM | GI50 (T-47D breast): 5.99 µM | TGI (T-47D breast): 33 µM | GI50 (TK-10 renal): 14.6 µM | TGI (TK-10 renal): 36.3 µM | GI50 (UACC-257 melanoma): 14.9 µM | TGI (UACC-257 melanoma): 42.7 µM | GI50 (UACC-62 melanoma): 4.07 µM | TGI (UACC-62 melanoma): 23.5 µM | GI50 (UO-31 renal): 2.64 µM | TGI (UO-31 renal): 12.8 µM
